In patent US20240423973A1, “COMPOUNDS, PHARMACEUTICAL COMPOSITIONS, AND METHODS FOR THE TREATMENT, PREVENTION, OR MANAGEMENT OF HYPERPROLIFERATIVE DISORDERS” (VINCERX PHARMA GMBH, priority 2021, published 2024):
*1 amine or outer side, *2 acyl side, *3 side chain or, on linkers, in order; H or OH if unused. Where a SMILES comes first, the peptide text is derived from it. Bridges are numbered along the chain shown (N, C = ends). Roman numbers before positions name the chains, in order. [ ]: non-standard residue; d: D form. The star is where a group is joined. X1 = CCCNC(=O)Nc1cccc(S(=O)(=O)Nc2cccc([C@@H](CC(=O)O)NC(=O)Nc3ccc(N*)cc3)c2)c1; Camptothecin(7-Et) = CCc1c2c(nc3ccccc13)-c1cc3c(c(=O)n1C2)COC(=O)[C@@]3(CC)O*; Glutaryl = O=C(CCCC(=O)[*:2])[*:1]; PEG3 = NCCOCCOCCOCCC(=O)O; CO = O=C([*:1])[*:2]; Sar = CNCC(=O)O

Columns and labels:
[1] = Pharmacokinetics in rat after intravenous administration; format: in vivo; details: male rats, intravenous 0.5 mg/kg bolus, plasma, non-compartmental analysis; for Vd: read-out: Vss
Procedure: Male rats (n=3) were given an intravenous 0.5 mg/kg bolus dose of test article dissolved in plasma with 1% DMSO and 1% ethanol (Ex A3 only). Serial blood samples were collected up to 24 hours post-dose. Plasma was harvested from blood samples and stored frozen until sample analysis. Test article plasma concentrations were analyzed by LC/MS/MS.

786-O = test: Cytotoxicity assay (Version 2), automated, AC50; format: cell-based, human; details: 786-O cells, Version 2, activity concentration at -50%, 4 parameter Hill-fit
Procedure: (§1) Cultivation of cells was performed according to standard procedures with the media recommended by the provider. The cells, in a total volume of 100 μL, were seeded in a 96-well plate with a white bottom (#3610). After a 24 h incubation period at 37° C. and 5% CO2, the medium was exchanged by adding 90 μL fresh medium. The treatment started by adding the test compound in 10 μL of culture medium to the cells in triplicates. Concentrations ranging from 10^−5 M to 10^−13 M were chosen. Two identically treated sets of samples were prepared. One set was treated with the test compound alone, whereas to the second set the compound and 10 nM elastase was added followed by a 72 h incubation period at 37° C. and 5% CO2. The proliferation was detected using the MTT assay (ATCC). At the end of the incubation period the MTT reagent was added to all samples for 4h. Lysis of the cells followed by addition of the detergent was done overnight. The formed dye was detected at 570 nm. The proliferation of untreated but otherwise identically handled cells was define as the […].
(§2) The Cytotoxicity assay (Version 2) was performed as above described. Some changes were applied as the assays were performed in an automated fashion and the IC50 values determination was changed. Here the change in metabolic activity of the cells, in percent, was calculated by normalization of the measured values to the absorbance values of medium containing wells without cells (=−100% ) and the absorbance of the DMSO-treated cells (=0% ). AC50 values (activity concentration at -50% o) were determined by means of a 4 parameter Hill-fit using GeneData Screener software.

HT29 = test: Cytotoxicity assay (Version 2), automated, AC50; format: cell-based, human; details: HT29 cells, Version 2, activity concentration at -50%, 4 parameter Hill-fit
Procedure: as §1, §2

NCI H292 = test: Cytotoxicity assay (Version 2), automated, AC50; format: cell-based, human; details: NCI H292 cells, Version 2, activity concentration at -50%, 4 parameter Hill-fit
Procedure: as §1, §2

SUM149 = test: Cytotoxicity assay (Version 2), automated, AC50; format: cell-based; details: SUM149 cells, Version 2, activity concentration at -50%, 4 parameter Hill-fit
Procedure: as §1, §2

| Compound | AUC [1] [ng·h/mL] | clearance [1] [mL/min/kg] | half-life [1] [h] | Vd [1] [L/kg] | AC50 (786-O; no elastase) [nM] | AC50 (786-O; with elastase) [nM] | AC50 (HT29; no elastase) [nM] | AC50 (HT29; with elastase) [nM] | AC50 (NCI H292; no elastase) [nM] | AC50 (NCI H292; with elastase) [nM] | AC50 (SUM149; no elastase) [nM] | AC50 (SUM149; with elastase) [nM] |
| --- | --- | --- | --- | --- | --- | --- | --- | --- | --- | --- | --- | --- |
| CCCNC(=O)Nc1cccc(S(=O)(=O)Nc2cccc([C@@H](CC(=O)O)NC(=O)Nc3ccc(NC(=O)NCCOCCOCCOCCC(=O)N[C@@H](CCCCNC(=O)CCCC(=O)N(C)CC(=O)N(C)CC(=O)N(C)CC(=O)N(C)CC(=O)O)C(=O)NCCOCCOCCOCCC(=O)N[C@@H](CC(=O)O)C(=O)N4CCC[C@H]4C(=O)N[C@H](C(=O)O[C@]4(CC)C(=O)OCc5c4cc4n(c5=O)Cc5c-4nc4ccccc4c5CC)C(C)C)cc3)c2)c1 [Compound E3] (I: {X1-CO-PEG3}-K[PEG3]DPV-{Camptothecin(7-Et)} / II: [Sar][Sar][Sar][Sar]-OH; linker I:1-II:N via Glutaryl) | 10000 to 50000 | 0.5 to 5 | 5 to 10 | > 0.1 | – | – | – | – | – | – | – | – |
| CCCNC(=O)Nc1cccc(S(=O)(=O)Nc2cccc([C@H](CC(=O)O)NC(=O)Nc3ccc(NC(=O)NCCOCCOCCOCCC(=O)NCCNC(=O)CC[C@H](NC(=O)CCCC(=O)NCCN(C)CCN(C)CCN(C)CC(=O)NCC(=O)N4CCC[C@H]4C(=O)N[C@H](C(=O)O[C@]4(CC)C(=O)OCc5c4cc4n(c5=O)Cc5c-4nc4ccccc4c5CC)C(C)C)C(=O)NCCNC(=O)CCOCCOCCOCCNC(=O)Nc4ccc(NC(=O)N[C@@H](CC(=O)O)c5cccc(NS(=O)(=O)c6cccc(NC(=O)NCCC)c6)c5)cc4)cc3)c2)c1 [Compound A12] | – | – | – | – | ≤ 10 | ≤ 10 | 110 to 1000 | 11 to 100 | 11 to 100 | ≤ 10 | ≤ 10 | ≤ 10 |
| CCCNC(=O)Nc1cccc(S(=O)(=O)Nc2cccc([C@@H](CC(=O)O)NC(=O)Nc3ccc(NC(=O)NCCOCCOCCOCCC(=O)N[C@@H](CCCCNC(=O)CCCC(=O)NCCOCCOCCOCCC(=O)N[C@@H](CC(=O)O)C(=O)N4CCC[C@H]4C(=O)N[C@H](C(=O)O[C@]4(CC)C(=O)OCc5c4cc4n(c5=O)Cc5c-4nc4ccccc4c5CC)C(C)C)C(=O)NCCCCCCCC(=O)O)cc3)c2)c1 [Compound E2] | 50000 to 150000 | 0.5 to 5 | 5 to 10 | 0.01 to 0.1 | – | – | – | – | – | – | – | – |
| CCCNC(=O)Nc1cccc(S(=O)(=O)Nc2cccc([C@@H](CC(=O)O)NC(=O)Nc3ccc(NC(=O)NCCOCCOCCOCCC(=O)NCCCC[C@H](NC(=O)CCOCCOCCOCCNC(=O)Nc4ccc(NC(=O)N[C@H](CC(=O)O)c5cccc(NS(=O)(=O)c6cccc(NC(=O)NCCC)c6)c5)cc4)C(=O)NCCOCCOCCOCCC(=O)N[C@@H](CC(=O)O)C(=O)N4CCC[C@H]4C(=O)N[C@H](C(=O)O[C@]4(CC)C(=O)OCc5c4cc4n(c5=O)Cc5c-4nc4ccccc4c5CC)C(C)C)cc3)c2)c1 [Compound A3] | 50000 to 150000 | 0.05 to 0.5 | 10 to 15 | 0.01 to 0.1 | – | – | – | – | – | – | – | – |
| CCCNC(=O)Nc1cccc(S(=O)(=O)Nc2cccc([C@@H](CC(=O)O)NC(=O)Nc3ccc(NC(=O)NCCOCCOCCOCCC(=O)N[C@@H](CC(=O)O)C(=O)N4CCC[C@H]4C(=O)N[C@@H](C)C(=O)O[C@]4(CC)C(=O)OCc5c4cc4n(c5=O)Cc5c-4nc4ccccc4c5CC)cc3)c2)c1 [Compound C10, disodium (4S)-4,11-diethyl-3,14-dioxo-3,4,12,14-tetrahydro-1H-pyrano[3′,4′:6,7]indolizino[1,2-b]quinolin-4-yl 1-[(2S)-2-(carboxylatomethyl)-17-{4-[({(1R)-2-carboxylato-1-[3-({3-[(propylcarbamoyl)amino]benzene-1-sulfonyl}amino)phenyl]ethyl}carbamoyl)amino]anilino}-4,17-dioxo-7,10,13-trioxa-3,16-diazaheptadecanan-1-oyl]-L-prolyl-L-alaninate] | – | – | – | – | 11 to 100 | ≤ 10 | 110 to 1000 | 11 to 100 | 11 to 100 | ≤ 10 | 11 to 100 | ≤ 10 |
